Consider 1 substance from US9944721B2, “Polysialic acid and use for treatment of neurodegenerative and neuroinflammatory diseases” (RHEINISCHE FRIEDRICH-WILHELMS UNIVERSITÄT BONN, priority 2013, dated 2018).

pEC50: −log10 of the molar value. Bounds are passed on as bounds.

What all share (assay type): cell-based
In assay [1] the test system is human microglial cells stimulated with fibrillary amyloid-β1-42. The assay is described as follows: Amyloid-β1-42 induced superoxide release of human microglia (DHE). The note with it: Aβ 10 μM. On the procedure: The human microglial cell line was treated with human Alzheimer's disease associated fibrillary amyloid-beta peptide (Aβ) to mimic inflammatory signalling of Alzheimer's disease brain tissue. To obtain fibrillary components of Aβ, the synthetic amyloid-beta peptide (amyloid-beta 1-42, Bachem/Brucker, 10 μM) was preincubated at 37° C. for at least three days. The human microglial cells were treated with the different concentrations of 0.15 μM, 0.5 μM, or 1.5 μM of low molecular weight polysialic acid (PSA-20) for 60 minutes followed by incubation for 15 minutes with fibrillary Aβ. Then, 30 μM dihydroethidium (DHE) was added and incubated at 37° C. for 15 minutes for measurement of superoxide anion radical production. Cells were fixed with 4% paraformaldehyde plus 0.25% glutaraldehyde and analyzed by confocal microscopy. For the quantification of DHE staining intensity six pictures of each experiment were obtained and analyzed by ImageJ software (NIH). The background was subtracted and the mean values of the staining intensities were compared. Cells were fixed and the intensity of DHE was quantified by confocal microscopy.
To confirm the specificity of the DHE measurement, the determination of the effect of PSA-20 on superoxide production in human microglial cells was repeated. As a control the radical scavenger Trolox, a water-soluble vitamin E analogue, was added to the system. Furthermore, as additional control superoxide dismutase-1 (SOD1) was added into the medium. Superoxide should no longer be detectable by the DHE dye after successful transformation of superoxide by SOD1.
Human microglial cells were cultured alone and production of reactive oxygen species was analyzed after treatment with the Alzheimer's disease plaques associated fibrillary amyloid-β1-42. To measure the relative production of superoxide by the microglial cells, cells were plated in 4-chamber culture dishes. After 24 hours human microglial cells were treated with 1.5 μM of low molecular weight polysialic acid (PSA-20) for 60 minutes followed by incubation for 15 minutes with 10 μM fibrillary amyloid-β1-42. Control dishes were treated with either 1.5 μM PSA-20 and 40 μM Trolox or 1.5 μM PSA-20 and 20 μg/ml superoxide dismutase-1 (SOD1, Serva). Then, cells were washed 2-times with Krebs-HEPES-buffer and afterwards incubated for 15 minutes with 30 μM DHE solution (diluted in Krebs-HEPES-buffer). Finally cells were washed 2-times with Krebs-HEPES-buffer and fixed for 15 minutes with 0.25% glutaraldehyde and 4% PFA. In total, six images were randomly collected per experimental group by confocal laser scanning microscopy (Fluoview 1000, Olympus). All cells of the collected images were analyzed by Image J software (NIH).

Assay [2] concerns human microglia stimulated with neural debris or Drusen-like debris. The assay is described as follows: Debris-induced superoxide release of human microglia (macular degeneration culture model, DHE). On the procedure: Second, effect of PSA-20 on microglia stimulated with neural cellular debris was analyzed. Drusen containing cellular debris is one characteristics of senile macular degeneration. To study the effect of degenerated material on the retinal microglia, we prepared neural debris by hypotonic and mechanic lysis of human neurons derived from induced pluripotent stem cells. Then, we treated the human microglial line derived from induced pluripotent stem cells and analyzed the effect of PSA-20. Superoxide release was determined by the fluorescent dye DHE. […] Cells were fixed with 4% paraformaldehyde plus 0.25% glutaraldehyde and analyzed by confocal microscopy. For the quantification of DHE staining intensity six pictures of each experiment were obtained and analyzed by ImageJ software (NIH). […] Cells were fixed and the intensity of DHE was quantified by confocal microscopy. […]
To obtain Drusen-like debris from the retina, human retinal pigment epithelium ARPE-19 cells were treated with 80 nM okadaic acid for 24 hours at 37° C. and 5% CO2, centrifuged, washed three times with PBS and the pellet was frozen at −20° C. […] Cells were fixed and the release of superoxide was quantified by the intensity of the DHE dye. […]

Assay [3] deals with human induced pluripotent stem cell derived microglia (iPSdM-1). Nature of the assay: Half maximum effective concentration for reduction of LPS-induced TNF-α gene transcript. The note with it: LPS 1 μg/ml, 24 hours. On the procedure: Human induced pluripotent stem cell derived microglia (iPSdM) were obtained from iPS cells. iPSdM-1 line was used in this study generated from the iLB-C-35m-r1 clone (Bonn). iPSdM-1 (here named microglia or microglial cells) were culture in N2-medium consisting of DMEM/F12 culture medium (Gibco) supplemented with 1% N2 (Invitrogen), 0.48 mM L-glutamine (Gibco) and 100 μg/ml penicillin/streptomycin (Gibco). Cells were cultured with high density and split 1:5. After splitting, cells recovered and attached again to the new dishes.
Cells were treated for 24 hours with 1 μg/ml lipopolysaccharides (LPS) and 5 nM, 15 nM, 50 nM, 150 nM, 500 nM, 1.5 μM, 5 μM, 15 μM, 50 μM or 150 μM of PSA-20. For gene transcript analysis of TNF-α, RNA was collected from cells via the RNeasy kit system (Quiagen) Reverse transcription of the RNA was performed using Super Script II reverse transcriptase (Life Technologies) and hexamer random primers (Roche). Quantitative RT-PCR with specific oligonucleotides was performed with SYBR Green PCR Master Mix (Qiagen) using the ABI 5700 Sequence Detection System (PerkinElmer). The qRT-PCR was running for 40 cycles with a Tm of 60° C. using the same primer as for the PCR. The […] method with GAPDH as internal standard was performed for qRT-PCR quantification.

Take poly-(α(2→8)Neu5Ac)n [PSA-20]: the “Aβ induced superoxide release” value in assay [1] (1.5 μM, 60 minutes pre-treatment, FIG. 4A) is given as “reduced”. The “amyloid-β1-42 induced stimulation of the superoxide production” value in assay [1] (repeat, FIG. 4B, PSA-20 1.5 μM, Trolox 40 μM, SOD1 20 μg/ml) is reported as “prevented”. Besides, in assay [2] (Drusen-like debris from ARPE-19 cells, 10 μg/ml PSA-20, 30 minutes, without PSA-20 1.38+/−0.02, FIG. 7C), the relative superoxide production was 0.92+/−0.22. Further, the “cellular neural debris induced superoxide production” value in assay [2] (neural debris from human neurons, FIG. 7B) is “prevented”. Also, the “concentration reducing the LPS-induced gene transcription of TNF-α” value in assay [3] (FIG. 10B) is at least 0.05 µM. The pEC50 (usually −log10 of the EC50, conventionally taken in molar units) in assay [3] (read-out: EC50 in human microglia (reduction of LPS-induced TNF-α gene transcript by 50%)) is 7.05.
